“And” between values parts separate entries of the source, which are not always exact repeats. Equal values may be shown once. Read-outs that look alike come from different tables or passages of the source.

The conditions of series [1]: dogs, 3 mg/kg i.v.
Series [2] can be described thus: in vivo. Conditions: rat, iv.
A short description of series [3]: in vivo. Conditions: dog, iv.
A further series deals with MDA468. In words: Cytotoxicity, 3 hour pulse-exposure, MDA468. Conditions: Homo sapiens.
Another series has as its system SKLC-16. In words: Cytotoxicity, 3 hour pulse-exposure, SKLC-16. Particulars: Homo sapiens.
A further series has as its system ZR-75-1. In words: Cytotoxicity, 3 hour pulse-exposure, ZR-75-1. Conditions: Homo sapiens, ZR-75-1, 3 h.
A further series deals with SK-BRIII. The series can be described thus: Cytotoxicity, 3 hour pulse-exposure, SK-BRIII. Particulars: Homo sapiens.
For a further series, the system named is human LX-1 lung cancer. Conditions: LX-1 xenograft, schedule and doses as Example 2; for Average Tumor Diameter (mm): nude mice.
A further series concerns human A549 lung cancer. Particulars: A549 xenograft, schedule and doses as Example 2; for Average Tumor Diameter (mm): nude mice.
For series [4], the system named is human MX-1 mammary carcinoma. The series can be described thus: Xenografts of human MX-1 mammary carcinoma in nude mice. Conditions: MX-1 xenograft; for Average Tumor Diameter (mm): nude mice, once a day for five days starting three days after implantation, 10-propargyl-10dAM 3 mg/kg, MTX 2 mg/kg, EDX 1.5 mg/kg, measured 14 days after start of treatment; for Complete Regressions: mice with no measurable tumor 14 days after start of treatment / mice treated; for Complete Regressions / Cures: same doses; for Cures: tumor free mice three weeks after cessation of therapy / mice treated. A general note: Xenograft models place foreign cells or tissue in a host animal.

Source text for human A549 lung cancer: Example 2 was repeated using xenografts of human A549 lung cancer in nude mice.

One may read the LD50 as the dose expected to kill half of the subjects tested. Read a high LD50 as lower toxicity. In the case of `C#CCC(Cc1cnc2nc(N)nc(N)c2n1)c1ccc(C(=O)N[C@@H](CCC(=O)O)C(=O)O)cc1` (stereo partly drawn) [10-propargyl-10dAM, 10-Propargyl-10-deazaaminopterin], the mice died entry with B6D2F1 mice (400 mg/kg i.p. QWX3, days 19, 20, 23 and 24) was “four out of five”; with B6D2F1 mice (600 mg/kg i.p. QWX3, days 9, 18, 19 and 21), “four out of five”. Moreover, the animals died entry in the series with CD rats (100 mg/kg i.v. QWX3, by day 23) is reported as “one out of the five”. The rats died entry is listed as “three out of the five” in the series on CD rats (150 mg/kg i.v. QWX3, days 18, 20 and 23); “all five” in the series with CD rats (200 mg/kg i.v. QWX3, days 12, 14, 15, 20 and 20); “all five” with CD rats (300 mg/kg i.v. QWX3, days 11, 11, 12, 12 and 14). Moreover, the LD10 entry in the series on CD rats (i.v. QWX3, conservative estimate, median-effect plot) is on record as “about 75 mg/kg”. Moreover, the “metabolite (retention time 6.3 min) as part of the total urinary 10-propargyl-10dAM” value in series [1] (urine at 1 hr) is reported as < 0.31%; in series [1] (urine at 4 hr), < 3.5%. Also, the LD50 is ~110 mg/kg in “in vivo [2]” and ~8 mg/kg in “in vivo [3]”.

What is called IC50 is the concentration that gives 50% inhibition. Lower therefore signals greater potency in that assay. As for `CCC(Cc1cnc2nc(N)nc(N)c2n1)c1ccc(C(=O)N[C@@H](CCC(=O)O)C(=O)O)cc1` (stereo partly drawn) [EDX, edatrexate], the IC50 is 380 ± 50 nM with MDA468, 260 ± 30 nM with SKLC-16, 860 ± 100 nM in the series on ZR-75-1 and 990 ± 150 nM in the series with SK-BRIII. Besides, the “Average Tumor Diameter (mm)” value amounted to 4.3 ± 2 mm with human LX-1 lung cancer, 6.8 ± 2 mm in the series with human A549 lung cancer and 2.2 ± 1.1 mm in series [4]. In addition, the “Complete Regressions” value in the series on human LX-1 lung cancer is given as 3/10; in the series with human A549 lung cancer it was 0/5; in series [4] it was 6/20. The Cures in the series with human LX-1 lung cancer is recorded as 1/10; in the series on human A549 lung cancer, 0/5; in [4], 2/20.

With `CN(Cc1cnc2nc(N)nc(N)c2n1)c1ccc(C(=O)N[C@@H](CCC(=O)O)C(=O)O)cc1` [MTX, methotrexate], in the series with human LX-1 lung cancer, the “Average Tumor Diameter (mm)” value was determined as 9.2 ± 2 mm, the “Complete Regressions” value is 0/10 and the Cures is 0/10. Moreover, in the series with human A549 lung cancer, the “Average Tumor Diameter (mm)” value was 8.3 ± 2 mm, the “Complete Regressions” value was 0/5 and the Cures is listed as 0/5. Besides, in series [4], the “Average Tumor Diameter (mm)” value is reported as 7.6 ± 0.8 mm; the “Complete Regressions” value is “no regressions and 0/10”; the Cures is 0/10.
